Measurements published in PubChem BioAssay AID1963978 (Molecular Pharmacology Branch, DTP, NCI, 2024).

Test system: 616215-338-R-J1-PDC spheroids with HUVEC/MSC, viability
Assay: Anticancer human tumor 616215-338-R-J1-PDC patient-derived colon adenocarcinoma cell line growth inhibition [PI3K]
Settings: for IC50: curve of first compound; for viability, T/C: stronger effect = lower value
Method in brief: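 Tumor cells were combined with HUVEC and MSCs into spheroids, then dosed with PI3K-inhibitor combinations over half-log ranges capped near clinical Cmax or 10 microM.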

[1] = second compound 0.0316 µM, first compound 0.0316 µM
[2] = second compound 0.0316 µM, first compound 0.1 µM
[3] = second compound 0.1 µM, first compound 0.0316 µM
[4] = second compound 0.1 µM, first compound 0.1 µM
[5] = second compound 0.316 µM, first compound 0.0316 µM
[6] = second compound 0.316 µM, first compound 0.1 µM
[7] = second compound 1 µM, first compound 0.0316 µM
[8] = second compound 1 µM, first compound 0.1 µM
[9] = second compound 3.16 µM, first compound 0.0316 µM
[10] = second compound 3.16 µM, first compound 0.1 µM
[11] = second compound 10 µM, first compound 0.0316 µM
[12] = second compound 10 µM, first compound 0.1 µM
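Note: spheroids exposed to agents for seven days before the viability read.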

For `CC(=O)c1c(C)c2cnc(Nc3ccc(N4CCNCC4)cn3)nc2n(C2CCCC2)c1=O` + CC(Nc1ncnc2nc[nH]c12)c1cc2cccc(Cl)c2c(=O)n1-c1ccccc1, the IC50 (second compound 0.0316 µM) was greater than 0.1 µM, the IC50 (second compound 0.1 µM) was greater than 0.1 µM and the IC50 (second compound 0.316 µM) was greater than 0.1 µM. The IC50 (second compound 1 µM) was greater than 0.1 µM, the IC50 (second compound 3.16 µM) was greater than 0.1 µM and the IC50 (second compound 10 µM) was greater than 0.1 µM. For the same compound, the viability, T/C (second compound 0.0316 µM, first compound 0.000316 µM) was 106%, the viability, T/C (second compound 0.0316 µM, first compound 0.001 µM) was 104% and the viability, T/C (second compound 0.0316 µM, first compound 0.00316 µM) was 93.2%. The viability, T/C (second compound 0.0316 µM, first compound 0.01 µM) was 93.3%, the viability, T/C [1] was 92.5% and the viability, T/C [2] was 102%. For the same compound, the viability, T/C (second compound 0.1 µM, first compound 0.000316 µM) was 98.7%, the viability, T/C (second compound 0.1 µM, first compound 0.001 µM) was 105% and the viability, T/C (second compound 0.1 µM, first compound 0.00316 µM) was 99.6%. For the same compound, the viability, T/C (second compound 0.1 µM, first compound 0.01 µM) was 106%, the viability, T/C [3] was 104% and the viability, T/C [4] was 118%. It also gave a viability, T/C (second compound 0.316 µM, first compound 0.000316 µM) of 110%, a viability, T/C (second compound 0.316 µM, first compound 0.001 µM) of 95.2% and a viability, T/C (second compound 0.316 µM, first compound 0.00316 µM) of 98.4%. For the same compound, the viability, T/C (second compound 0.316 µM, first compound 0.01 µM) was 92.3%, the viability, T/C [5] was 106% and the viability, T/C [6] was 114%. For the same compound, the viability, T/C (second compound 1 µM, first compound 0.000316 µM) was 98.2%, the viability, T/C (second compound 1 µM, first compound 0.001 µM) was 104% and the viability, T/C (second compound 1 µM, first compound 0.00316 µM) was 99.5%. For the same compound, the viability, T/C (second compound 1 µM, first compound 0.01 µM) was 107%, the viability, T/C [7] was 113% and the viability, T/C [8] was 110%. The viability, T/C (second compound 3.16 µM, first compound 0.000316 µM) was 115%, the viability, T/C (second compound 3.16 µM, first compound 0.001 µM) was 88.1% and the viability, T/C (second compound 3.16 µM, first compound 0.00316 µM) was 99.2%. The viability, T/C (second compound 3.16 µM, first compound 0.01 µM) was 112%, the viability, T/C [9] was 101% and the viability, T/C [10] was 103%. It also gave a viability, T/C (second compound 10 µM, first compound 0.000316 µM) of 97.8%, a viability, T/C (second compound 10 µM, first compound 0.001 µM) of 94% and a viability, T/C (second compound 10 µM, first compound 0.00316 µM) of 122%. For the same compound, the viability, T/C (second compound 10 µM, first compound 0.01 µM) was 118%, the viability, T/C [11] was 104% and the viability, T/C [12] was 90.9%.

With `CNC(=O)c1ccc(N2C(=S)N(c3ccc(C#N)c(C(F)(F)F)c3)C(=O)C2(C)C)cc1F` + CC(Nc1ncnc2nc[nH]c12)c1cc2cccc(Cl)c2c(=O)n1-c1ccccc1 the IC50 (second compound 0.0316 µM) was greater than 10 µM, the IC50 (second compound 0.1 µM) was greater than 10 µM and the IC50 (second compound 0.316 µM) was greater than 10 µM. The IC50 (second compound 1 µM) was greater than 10 µM, the IC50 (second compound 3.16 µM) was greater than 10 µM and the IC50 (second compound 10 µM) was greater than 10 µM. It also gave a viability, T/C [1] of 98.5%, a viability, T/C [2] of 107% and a viability, T/C (second compound 0.0316 µM, first compound 0.316 µM) of 109%. The viability, T/C (second compound 0.0316 µM, first compound 1 µM) was 106%, the viability, T/C (second compound 0.0316 µM, first compound 3.16 µM) was 104% and the viability, T/C (second compound 0.0316 µM, first compound 10 µM) was 101%. The viability, T/C [3] was 91%, the viability, T/C [4] was 98.9% and the viability, T/C (second compound 0.1 µM, first compound 0.316 µM) was 96%. It also gave a viability, T/C (second compound 0.1 µM, first compound 1 µM) of 97.9%, a viability, T/C (second compound 0.1 µM, first compound 3.16 µM) of 108% and a viability, T/C (second compound 0.1 µM, first compound 10 µM) of 114%. For the same compound, the viability, T/C [5] was 97.2%, the viability, T/C [6] was 97% and the viability, T/C (second compound 0.316 µM, first compound 0.316 µM) was 105%. It also gave a viability, T/C (second compound 0.316 µM, first compound 1 µM) of 97.1%, a viability, T/C (second compound 0.316 µM, first compound 3.16 µM) of 110% and a viability, T/C (second compound 0.316 µM, first compound 10 µM) of 112%. The viability, T/C [7] was 113%, the viability, T/C [8] was 109% and the viability, T/C (second compound 1 µM, first compound 0.316 µM) was 111%. It also gave a viability, T/C (second compound 1 µM, first compound 1 µM) of 105%, a viability, T/C (second compound 1 µM, first compound 3.16 µM) of 111% and a viability, T/C (second compound 1 µM, first compound 10 µM) of 114%. For the same compound, the viability, T/C [9] was 95.6%, the viability, T/C [10] was 94.3% and the viability, T/C (second compound 3.16 µM, first compound 0.316 µM) was 111%. It also gave a viability, T/C (second compound 3.16 µM, first compound 1 µM) of 104%, a viability, T/C (second compound 3.16 µM, first compound 3.16 µM) of 103% and a viability, T/C (second compound 3.16 µM, first compound 10 µM) of 106%. It also gave a viability, T/C [11] of 104%, a viability, T/C [12] of 117% and a viability, T/C (second compound 10 µM, first compound 0.316 µM) of 117%. The viability, T/C (second compound 10 µM, first compound 1 µM) was 116%, the viability, T/C (second compound 10 µM, first compound 3.16 µM) was 110% and the viability, T/C (second compound 10 µM, first compound 10 µM) was 116%.

For `Cn1cnc2c(F)c(Nc3ccc(Br)cc3Cl)c(C(=O)NOCCO)cc21` + CC(Nc1ncnc2nc[nH]c12)c1cc2cccc(Cl)c2c(=O)n1-c1ccccc1, the IC50 (second compound 0.0316 µM) was 1.52 µM, the IC50 (second compound 0.1 µM) was 1.56 µM and the IC50 (second compound 0.316 µM) was 1.91 µM. It also gave an IC50 (second compound 1 µM) of 1.73 µM, an IC50 (second compound 3.16 µM) of 1.27 µM and an IC50 (second compound 10 µM) of 0.507 µM. For the same compound, the viability, T/C (second compound 0.0316 µM, first compound 0.00949 µM) was 94.3%, the viability, T/C (second compound 0.0316 µM, first compound 0.03 µM) was 100% and the viability, T/C (second compound 0.0316 µM, first compound 0.0949 µM) was 89.7%. The viability, T/C (second compound 0.0316 µM, first compound 0.3 µM) was 75.8%, the viability, T/C (second compound 0.0316 µM, first compound 0.949 µM) was 59.9% and the viability, T/C (second compound 0.0316 µM, first compound 3 µM) was 37.5%. The viability, T/C (second compound 0.1 µM, first compound 0.00949 µM) was 108%, the viability, T/C (second compound 0.1 µM, first compound 0.03 µM) was 96.5% and the viability, T/C (second compound 0.1 µM, first compound 0.0949 µM) was 89%. For the same compound, the viability, T/C (second compound 0.1 µM, first compound 0.3 µM) was 77.6%, the viability, T/C (second compound 0.1 µM, first compound 0.949 µM) was 51.8% and the viability, T/C (second compound 0.1 µM, first compound 3 µM) was 43.8%. It also gave a viability, T/C (second compound 0.316 µM, first compound 0.00949 µM) of 95.2%, a viability, T/C (second compound 0.316 µM, first compound 0.03 µM) of 90.5% and a viability, T/C (second compound 0.316 µM, first compound 0.0949 µM) of 86.5%. It also gave a viability, T/C (second compound 0.316 µM, first compound 0.3 µM) of 70.2%, a viability, T/C (second compound 0.316 µM, first compound 0.949 µM) of 59.6% and a viability, T/C (second compound 0.316 µM, first compound 3 µM) of 44.4%. The viability, T/C (second compound 1 µM, first compound 0.00949 µM) was 98.6%, the viability, T/C (second compound 1 µM, first compound 0.03 µM) was 90.8% and the viability, T/C (second compound 1 µM, first compound 0.0949 µM) was 87.6%. The viability, T/C (second compound 1 µM, first compound 0.3 µM) was 84.6%, the viability, T/C (second compound 1 µM, first compound 0.949 µM) was 63% and the viability, T/C (second compound 1 µM, first compound 3 µM) was 36.9%. For the same compound, the viability, T/C (second compound 3.16 µM, first compound 0.00949 µM) was 102%, the viability, T/C (second compound 3.16 µM, first compound 0.03 µM) was 96.3% and the viability, T/C (second compound 3.16 µM, first compound 0.0949 µM) was 83.3%. For the same compound, the viability, T/C (second compound 3.16 µM, first compound 0.3 µM) was 76.5%, the viability, T/C (second compound 3.16 µM, first compound 0.949 µM) was 55% and the viability, T/C (second compound 3.16 µM, first compound 3 µM) was 32.5%. It also gave a viability, T/C (second compound 10 µM, first compound 0.00949 µM) of 117%, a viability, T/C (second compound 10 µM, first compound 0.03 µM) of 99.1% and a viability, T/C (second compound 10 µM, first compound 0.0949 µM) of 93.3%. For the same compound, the viability, T/C (second compound 10 µM, first compound 0.3 µM) was 52.5%, the viability, T/C (second compound 10 µM, first compound 0.949 µM) was 41% and the viability, T/C (second compound 10 µM, first compound 3 µM) was 6.44%.
